Columns and labels:
Type in all cases: cell-based
[1] = system: cellular microtubules (MTs) in COS 1 cells
[2] = system: cellular microtubules (MTs) in COS 1 cells; assay: VP22 deletion mutants transfected into COS 1 cells, immunofluorescence with anti VP22 antibody AGV30: MT bundling and movement between cells; conditions: transfected COS 1 cells
Text: To broadly identify the region of VP22 involved in MT interaction, we utilised a range of C terminal deletion mutants of the protein. The plasmids encoding WT, del-267, del-192 and del-119 (FIG. 3a) forms of VP22 were transfected into COS 1 cells and analysed by immunofluorescence using the anti VP22 antibody AGV30. The del-267 and del-119 constructs comprise respectively aminoacids 1–267 inclusive, and aminoacids 1–119 inclusive of the wild type sequence of VP22 of HSV1 as disclosed in above-cited WO 97/05265 and references cited therein. The del-192 construct consists of aminoacids 1–191 inclusive plus a residue 192 mutated to leucine.
In these examples the longer sequences have increasing efficiency.

[3] = system: cellular microtubules (MTs) in COS 1 cells; assay: Double immunofluorescence (anti-VP22, anti alpha tubulin) of COS 1 cells expressing VP22: co-localisation with and bundling of microtubules
Text: To investigate the possibility that the pattern of localisation in cells expressing VP22 represents co-localisation with a component of the cytoskeleton, COS 1 cells were transfected with the VP22 expression plasmid pGE109. Forty hours after transfection, the cells were fixed with 100% methanol and double immunofluorescence carried out with antibodies against VP22 (polyclonal AGV30) and alpha tubulin (monoclonal anti alpha tubulin, Sigma).
COS 1 cells treated in the same manner were exposed to the MT stabilising drug taxol (10 microM) for 30 minutes prior to fixation. […] The MT binding property of VP22 can also be used to deliver coupling products between VP22 and other substances, such as taxol or a related compound to MTs.

[4] = system: acetylated form of tubulin; assay: Acetylation of MTs: colocalisation immunofluorescence and Western blot with monoclonal antibody specific for acetylated tubulin
Text: Acetylation of MTs was previously reported as a marker for MT stability (Piperno et al, J Cell Biol 104 (1987) 289–302). This has been shown by use of monoclonal antibody specific for the acetylated form of tubulin (obtainable from Sigma Chemical), in colocalisation assays by immunofluorescence, and by Western blot assays. This effect can be used as a biochemical marker for analysing and quantitating the level of MT stabilisation induced by VP22 or a variant or derviative thereof.

Compound: COC(=O)Nc1nc2ccc(C(=O)c3cccs3)cc2[nH]1 [Nocodazole, nocodazole, reference compound]
- Effect of nocodazole on the MT network of untransfected cells [1]: depolymerisation of the MT network

Compound: VP22: product of the herpes simplex virus type 1 (HSV 1) UL49 gene, the structural tegument protein VP22, 32 kD
- MT bundling / cytoplasmic filament formation by VP22 forms [2]: VP22 in cytoplasmic filaments
- Movement of the protein between cells (transport) [2]: surrounded by cells with VP22 in their nuclei
- Stabilisation of MTs against nocodazole depolymerisation ([1]; VP22 expressing COS 1 cells, nocodazole 500 ng/ml, 30 minutes): does not depolymerise the MTs
- Stabilisation of MTs against depolymerisation by cold ([1]; incubation of cells at 4 deg C): stabilised MTs against depolymerisation by 4 deg C. incubation
- Co-localisation with and bundling of the cellular MT network ([3]; COS 1 cells transfected with pGE109, fixed 40 h after transfection): colocalises and reorganises the cellular MT network into bundles
- MT bundles in VP22 expressing cells exposed to taxol ([3]; VP22 expressing COS 1 cells plus taxol 10 microM, 30 minutes): these bundles were even more striking and again co-localised with VP22
- Acetylation of MTs (marker for MT stability) [4]: associated with acetylation of the MTs

Compound: CC(=O)O[C@H]1C(=O)[C@@]2(C)[C@H]([C@H](OC(=O)c3ccccc3)[C@]3(O)C[C@H](OC(=O)[C@H](O)[C@@H](NC(=O)c4ccccc4)c4ccccc4)C(C)=C1C3(C)C)[C@]1(OC(C)=O)CO[C@@H]1C[C@@H]2O [taxol, reference compound]
- Effect on MTs in untransfected cells ([3]; untransfected COS 1 cells, taxol 10 microM, 30 minutes prior to fixation): creating large bundles of MTs

Compound: 1–172: variant VP22 protein consisting of residues 1–172 of the native VP22 of HSV1
- MT bundling / cytoplasmic filament formation by VP22 forms [2]: retain in some degree the ability to bundle microtubules

Compound: 1–159: VP22 fragment consisting of residues 1–159
- MT bundling / cytoplasmic filament formation by VP22 forms [2]: did not appear to retain the MT-bundling activity

Source: patent US7067632B2, “VP22 proteins and uses thereof” (priority 1997, dated 2006)
